Reference: publication PMC535546, “Assessment of FIV-C infection of cats as a function of treatment with the protease inhibitor, TL-3” (Retrovirology, 2004)
pKi: −log10 of the molar value.

What was measured:
FIV-PPR = FIV-PPR infected cats; cited from earlier work
wild-type FIV-C protease = test: Inhibitor constant (Ki) of TL-3 against wild-type FIV-C protease, fluorogenic substrate; assay type: biochemical, feline immunodeficiency virus (FIV-C); conditions: wildtype PR
From the text: (§1) Complementary DNA (cDNA) was synthesized from isolated plasma viral RNA of infected cats. […] The amplified PCR product was gel purified and cloned into pCR-TOPOII vector (Invitrogen, Carlsbad, CA) for sequencing. Selected DNA of mutants, N55D, H72R, D105G, and M107R were digested with Nde I/Hind III and ligated into pET21a expression vector (Novagen). The mutant FIV-C proteases were expressed in Rosetta pLysS cells (Novagen) and purified as previously described.
(§2) Enzyme kinetics of FIV-C protease were assayed on the flourogenic substrate Arg-Ala-Leu-Thr-Lys(Abz)-Val-Gln/Phe(NO2)-Val-Gln-Ser-Lys-Gly-Arg-NH2. […] Inhibitor constant (Ki) of TL-3 against mutant FIV-C protease was analyzed as described.

[1] = molecular target: FIV-C protease mutant D105G (HIV88N) (Feline immunodeficiency virus, UniProt P16088, D143G)
From the text: as §1, §2

FIV = tested on: FIV; parameters: method as in PMID 9448264; conditions: cited from earlier work
FIV-C (CABCpady00C) = test: FIV-C infection of cats with oral TL-3 treatment (viral load, disease, survival); assay type: in vivo, cat
Description: Twenty-two female specific pathogen-free (SPF) cats were randomly divided into five groups. Group 0 consisted of two cats, which received TL-3 treatment without viral infection and were considered controls. Group 1 (n = 5) received 0.1 ml (10^5 RNA copies/ml) of FIV-C-infected plasma I.V. with TL-3 drug treatment. Group 2 (n = 5) received 0.1 ml FIV-C-infected plasma without TL-3 treatment. Group 3 (n = 5) received 0.5 ml FIV-C-infected plasma with TL-3 and Group 4 (n = 5) received 0.5 ml FIV-C-infected plasma without TL-3 treatment. Blood (1 ml) was drawn from all cats prior to the start of the experiment, at weekly intervals for the first four weeks after infection, and at bi-monthly intervals from week 4 until the end of the study. Complete blood counts were assessed as a function of infection and TL-3 treatment. In addition, quantitative reverse transcription PCR (QRT-PCR) analyses were performed to assess plasma viral load. All animals were continuously observed for any changes in general health. No significant differences were noted between viral load or disease phenotype between the two plasma dosages used in infection and subsequent discussion will not distinguish between these two groups.
Plasma samples (10^5 RNA copies/ml) from a cat, that had died from an acute infection with CABCpady00C (FIV-C), were kindly provided by Dr. E. Hoover, of Colorado State University. Cats were injected I.V. with either 0.1 ml (10^5 RNA copies/ml) or 0.5 ml of plasma.
(§3) All procedures for care of cats during dosing as well as dosing procedures were mandated by TSRI's IACUC. Oral TL-3 (L-Iditol,1,2,5,6-tetradeoxy-1,6-diphenyl-2,5-bis [N-[(phenylmethoxy)carbonyl]-L-alanyl-L-valyl]amino]) treatment was initiated in 12 cats, three days prior to infection of ten of the twelve animals with FIV-C. All TL-3 treated animals received 20 mg TL-3 by capsules at eight hour intervals, for approx. the first 7.5 weeks of the experiment. Dosage was then doubled to 40 mg TL-3 per dose at eight hour intervals for an additional week for the two control animals and the eight surviving animals in the TL-3 treated, infected cohort.
Animals were examined daily and in case of health concerns further therapy/diagnostics were initiated. Animals with abnormal weight, or on antibiotics were placed on supplemental feeding with moist food and Nutrical. Dehydrated animals received subcutaneous fluid therapy. More affected animals received supportive care and medications, consisting of BID administration of antibiotics (Baytril), BID subcutaneous fluid therapy, BID temperature evaluation, BID application of antibiotic ophthalmic ointment supportive care. Any animals that required extensive supportive care (TID fluid therapy, TID force feeding) were euthanized. Euthanasia of research animals was conducted with strict adherence to NIH Office of Laboratory Animal Welfare protocols.
Plasma for weeks 0, 2, 4, 6 (terminal points for cats 215, 221, and 229), 6.5 (terminal points for cats 219, 220, and 234), and 8, were isolated from whole blood by centrifugation and stored at -20°C. Viral RNA was extracted using the QiaAmp Viral RNA Isolation Kit (Qiagen, Valencia, CA) according to manufacturer's instructions with slight modifications: Plasma samples (280 μl) were lysed in buffer AVL (1,120 μl) (Qiagen) for 10 minutes at room temperature in the presence of carrier RNA (10 μg/ml) and an external Kanamycin (KAN) RNA spike. Equal amounts of the external RNA spike (10^9 copies RNA /280 μl plasma), corresponding to the 1.2 kb KAN gene (Promega, Madison, WI), was used to normalize plasma volumes between samples and to correct for sample loss from viral RNA extraction and cDNA synthesis. An on-column DNase/ RNase free (Qiagen) incubation step for 10 minutes at room temperature was added to remove residual cellular DNA. […]

[2] = molecular target: T1, FIV-C protease mutant H72R (HIV63L) (Feline immunodeficiency virus, UniProt P16088, H110R); test: Inhibitor constant (Ki) of TL-3 against mutant FIV-C protease H72R; assay type: biochemical; conditions: PR mutation H72R (HIV63L), cat 231
T1 construct: adds a stop codon and a Hind III restriction site to the C-terminus of the protease; Met-Ala N-terminal extension (printed 'methionine, and alkaline'; the primer codes ATG GCA) (N); made in house; host or cells: E. coli Rosetta pLysS, pET21a
From the text: as §1, §2

[3] = molecular target: T2, FIV-C protease mutant N55D (HIV46M) (Feline immunodeficiency virus, UniProt P16088, N93D); test: Inhibitor constant (Ki) of TL-3 against mutant FIV-C protease N55D; assay type: biochemical; conditions: PR mutation N55D (HIV46M), cat 231
T2 construct: adds a stop codon and a Hind III restriction site to the C-terminus of the protease; Met-Ala N-terminal extension (printed 'methionine, and alkaline'; the primer codes ATG GCA) (N); made in house; host or cells: E. coli Rosetta pLysS, pET21a
From the text: as §1, §2

[4] = tested on: SIV (simian immunodeficiency virus); parameters: method as in PMID 9448264; conditions: cited from earlier work
HIV-1 = tested on: HIV-1; parameters: method as in PMID 9448264; conditions: cited from earlier work
[5] = Tolerability of oral TL-3 in uninfected control cats; assay type: in vivo, cat; conditions: TL-3 treated controls, 20 mg then 40 mg oral every eight hours
Description: as §3

Structure (SMILES): CC(C)[C@H](NC(=O)[C@H](C)NC(=O)OCc1ccccc1)C(=O)N[C@@H](Cc1ccccc1)[C@@H](O)[C@H](O)[C@H](Cc1ccccc1)NC(=O)[C@@H](NC(=O)[C@H](C)NC(=O)OCc1ccccc1)C(C)C [TL-3]
- effect on delays in brainstem auditory evoked potentials (BAEPs) (FIV-PPR): could reverse this effect
- effect on neurologic alterations in the CNS (FIV-PPR): significant protective effect
- plasma viral loads (FIV-PPR): lowered plasma viral loads
- pKi (wild-type FIV-C protease): 8.00
- resistance against TL-3 relative to wild type protease ([1]; D105G mutant vs wild type FIV-C protease): 5 fold
- pKi ([1]; read-out: Ki vs TL-3, PR mutation D105G (HIV88N), cloned from cats 231 and 222): 7.33
- inhibition of infection in vitro (FIV): inhibits
- animals that had lost weight (FIV-C (CABCpady00C); 6 weeks post infection, + TL-3 cohort, three also in -TL-3 cohort): three
- animals that required euthanasia (FIV-C (CABCpady00C); TL-3 treated group, of six euthanized, four from untreated cohort): two
- average (peak) viral loads vs untreated animals (FIV-C (CABCpady00C); acute phase, did not reach statistical significance): lower
- animals showing clinical signs of debilitating acute phase disease (FIV-C (CABCpady00C); by week 6 post infection, TL-3 treated groups, of seven affected, four untreated): three
- prevention of viremia (FIV-C (CABCpady00C); oral monotherapy, high dose FIV-C): did not prevent viremia
- plasma viremia, TL-3 treated vs untreated cohorts (FIV-C (CABCpady00C); week 2 post infection): little differences in viral loads
- animals with viral loads below detection limits (FIV-C (CABCpady00C); week 8 post infection, surviving TL-3 treated cats, oral 20 mg every eight hours, untreated: one of six): four of 8 and half
- pKi [2]: 7.96
- pKi [3]: 8.04
- inhibition of infection in vitro [4]: inhibits
- inhibition of infection in vitro (HIV-1): inhibits
- adverse effects [5]: No adverse effects
